Results: patent publication US20240368161A1, “CYCLOPROPANECARBOXAMIDE-CONTAINING COMPOUNDS AND APPLICATION THEREOF” (CGENETECH (SUZHOU, CHINA) CO., LTD., priority 2022, published 2024)
Like-named read-outs stand apart in the source and are kept apart here.

Legend:
JAK1 = JAK1 (Homo sapiens (Human), UniProt P23458); test: JAK1 kinase inhibitory activity determination (HTRF Kinase-TK); format: biochemical; conditions: JAK1 0.32 ng/μL, ATP 4 μM, substrate 1 μM, 4 h
Method: (§1) • JAK1: 0.32 ng/μL, ATP 4 M, substrate 1 μM, time 4 h • JAK2: 0.008 ng/μL, ATP 4 μM, substrate 1 M, time 2 h • JAK3: 0.1 ng/μL, ATP 3 μM, substrate 1 μM, time 3 h
(§2) The half-maximal inhibitory concentration (IC50) was fitted using GraphPad Prism 6 based on the kinase inhibition rates of the compound to be tested at different concentrations.

JAK2 = JAK2 (Homo sapiens (Human), UniProt O60674); test: JAK2 kinase inhibitory activity determination (HTRF Kinase-TK); format: biochemical; conditions: JAK2 0.008 ng/μL, ATP 4 μM, substrate 1 μM, 2 h
Method: as §1, §2

JAK3 = JAK3 (Homo sapiens (Human), UniProt P52333); test: JAK3 kinase inhibitory activity determination (HTRF Kinase-TK); format: biochemical; conditions: JAK3 0.1 ng/μL, ATP 3 μM, substrate 1 μM, 3 h
Method: as §1
At the end of incubation, HTRF665/620 signals were read on a multifunctional microplate reader.
as §2

[1] = Oral pharmacokinetic determination in mice; format: in vivo, C57 mice; conditions: for AUC(0-inf) / AUC(0-t) / Cmax / Tmax / MRT last / MRT inf / half-life: mouse, male C57 mice, plasma; for MRT last: read-out: MRT(0-t); for MRT inf: read-out: MRT(0-∞); for half-life: read-out: T½ (converted)
Method: Three healthy male C57 mice, aged 6-8 weeks, were purchased from Shanghai Sippr-BK Laboratory Animal Co. Ltd. (Shanghai, China).
Mice were fasted overnight prior to oral administration, and food supply was resumed 4 h after administration with free access to water. […] blood sampling; approximately 30 μL of blood was collected from the tested animals at 0.125 h, 0.25 h, 0.5 h, 1 h, 2 h, 4 h, 8 h, and 24 h, respectively, after administration and placed in test tubes containing the anticoagulant sodium heparin, which were placed on ice until centrifugation, and within 15 min, centrifuged in a centrifuge at 6800 g for 6 min at 6-8° C., and within 1 h of blood collection/centrifugation, plasma was transferred to appropriately labeled tubes and stored frozen at about −80° C.
Mass spectrometry method: LC-MS/MS-19 (TQ5500) (SCIEX, USA), ion source: ESI source, detection mode: positive ion detection, scanning mode: multi-reaction monitoring (MRM) mode, m/z: 271.10/172.00 Da (Tolbutamide, internal standard).
To 10 μL of the plasma sample, was added 200 μL of internal standard working solution (Tolbutamide, 100 ng/mL), with vortex for 1 min, followed by centrifugation for 10 min at 18,000 g. 200 μL of a supernatant was transferred to a 96-well low volume plate, and 1 μL of the supernatant was taken and injected into LC-MS/MS for analysis.
Pharmacokinetic (PK) parameters were calculated using Phoenix WinNonlin 7.0 software, and oral pharmacokinetic parameters of mice including AUC, Cmax, Tmax, T½, etc., were estimated by the non-compartment model.

JAK2, sequence (O60674 826-1132): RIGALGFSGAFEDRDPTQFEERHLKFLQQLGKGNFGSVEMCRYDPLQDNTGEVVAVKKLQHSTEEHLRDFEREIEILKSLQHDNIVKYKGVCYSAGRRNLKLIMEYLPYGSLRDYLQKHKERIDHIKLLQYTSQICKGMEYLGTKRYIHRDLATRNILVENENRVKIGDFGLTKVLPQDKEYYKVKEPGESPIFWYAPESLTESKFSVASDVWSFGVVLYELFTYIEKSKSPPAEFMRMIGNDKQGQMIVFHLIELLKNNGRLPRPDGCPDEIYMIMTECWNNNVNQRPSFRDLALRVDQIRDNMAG
JAK3, sequence (P52333 795-1124): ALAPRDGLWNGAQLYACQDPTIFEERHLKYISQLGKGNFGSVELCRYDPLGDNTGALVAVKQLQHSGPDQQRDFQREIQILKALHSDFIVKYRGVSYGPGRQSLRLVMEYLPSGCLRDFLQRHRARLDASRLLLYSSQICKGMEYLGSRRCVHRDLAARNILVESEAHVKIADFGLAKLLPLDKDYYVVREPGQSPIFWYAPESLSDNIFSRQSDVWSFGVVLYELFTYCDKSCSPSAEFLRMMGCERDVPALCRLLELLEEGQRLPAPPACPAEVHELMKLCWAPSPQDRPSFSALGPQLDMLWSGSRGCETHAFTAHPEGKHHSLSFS
JAK1, sequence (P23458 866-1154): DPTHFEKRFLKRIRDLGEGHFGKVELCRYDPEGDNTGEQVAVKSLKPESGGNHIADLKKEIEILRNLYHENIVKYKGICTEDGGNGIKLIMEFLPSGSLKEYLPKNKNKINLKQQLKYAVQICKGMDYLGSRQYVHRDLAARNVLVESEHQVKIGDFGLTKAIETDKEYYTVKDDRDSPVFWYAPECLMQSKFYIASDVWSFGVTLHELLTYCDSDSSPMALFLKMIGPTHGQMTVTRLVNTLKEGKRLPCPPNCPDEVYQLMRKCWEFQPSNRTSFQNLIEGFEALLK

Row | SMILES | IC50 (JAK1) [µM] | IC50 (JAK2) [µM] | IC50 (JAK3) [µM] | further results
1 | N#CCC(CC1CC1)n1cc(-c2cccc3nc(NC(=O)C4CC4)cn23)cn1 (centres unmarked) [Compound 3] | 0.0378 | 0.00687 |  | 
2 | N#CCC1(n2cc(-c3cccc4nc(NC(=O)C5CC5)cn34)cn2)CCC(F)(F)CC1 [Compound 12] | 0.01 | 0.0007 |  | 
3 | O=C(Nc1nc2cccc(-c3ccc(CN4CCS(=O)(=O)CC4)cc3)n2n1)C1C[C@@H]1F (some centres unmarked) [Compound 27] | 1.08 | 0.415 | 1.92 | 
4 | CS(=O)(=O)C1CN(Cc2ccc(-c3cccc4nc(NC(=O)C5CC5)cn34)cc2)C1 [Compound 15] |  |  |  | systemic exposure (AUC) per unit dose compared to Filgotinib ([1]; mice, oral, unit dose comparison): higher systemic exposure; AUC(0-inf) ([1]; oral (gavage), dose 10 mg/kg): 9880 ng·h/mL; AUC(0-t) ([1]; oral (gavage), dose 10 mg/kg): 9750 ng·h/mL; Cmax ([1]; oral (gavage), dose 10 mg/kg): 6220 ng/mL; Tmax ([1]; oral (gavage), dose 10 mg/kg): 0.29 h; MRT last ([1]; oral (gavage), dose 10 mg/kg): 1.6 h; MRT inf ([1]; oral (gavage), dose 10 mg/kg): 1.7 h; half-life ([1]; oral (gavage), dose 10 mg/kg): 1.31 h
5 | O=C(Nc1nc2cccc(-c3ccc(CN4CCS(=O)(=O)CC4)cc3)n2n1)C1C[C@H]1F (some centres unmarked) [Compound 26] | 1.25 | 1.09 | 3.45 | 
6 | O=C(Nc1nc2cccc(-c3ccc(CN4CCS(=O)(=O)CC4)cc3)n2n1)C1CC1(F)F (centres unmarked) [Compound 25] | 0.59 | 1.98 | 7.78 | 
7 | O=C(Nc1cn2c(-c3ccc(CN4CCS(=O)(=O)CC4)cc3F)cccc2n1)C1CC1F (centres unmarked) [Compound 29] | 0.0887 | 0.17 | 6.11 | 
8 | COCCC(CC#N)n1cc(-c2cccc3nc(NC(=O)C4CC4)cn23)cn1 (centres unmarked) [Compound 9] | 0.0283 | 0.0134 |  | 
9 | O=C(Nc1cn2c(-c3ccc(CN4CCC(F)(F)CC4)cc3)cccc2n1)C1CC1 [Compound 28] | 0.0262 | 0.0242 | 0.0949 | 
10 | CCCC(CC#N)n1cc(-c2cccc3nc(NC(=O)C4CC4)cn23)cn1 (centres unmarked) [Compound 5] | 0.014 | 0.00181 |  | 
11 | N#CCC(CCC(F)(F)F)n1cc(-c2cccc3nc(NC(=O)C4CC4)cn23)cn1 (centres unmarked) [Compound 10] | 0.00664 | 0.00124 |  | 
12 | O=C(Nc1nc2cccc(-c3ccc(CN4CCS(=O)(=O)CC4)cc3)n2n1)C1CC1 [Filgotinib, reference compound] |  |  |  | AUC(0-inf) ([1]; oral, dose 5 mg/kg): 2190 ng·h/mL; AUC(0-t) ([1]; oral, dose 5 mg/kg): 2120 ng·h/mL; Cmax ([1]; oral, dose 5 mg/kg): 1710 ng/mL; Tmax ([1]; oral, dose 5 mg/kg): 0.25 h; MRT last ([1]; oral, dose 5 mg/kg): 1.54 h; MRT inf ([1]; oral, dose 5 mg/kg): 1.82 h; half-life ([1]; oral, dose 5 mg/kg): 1.79 h
13 | O=C(Nc1nc2cccc(-c3ccc(OC4CCS(=O)(=O)CC4)cc3)n2n1)C1CC1 [Compound 19] | 0.182 | 0.0903 | 0.909 | 
14 | CC(C)S(=O)(=O)C1CCN(Cc2ccc(-c3cccc4nc(NC(=O)C5CC5)cn34)cc2)CC1 [Compound 32] | 0.956 | 0.448 | 9.64 | 
15 | N#CCC(C1CC1)n1cc(-c2cccc3nc(NC(=O)C4CC4)cn23)cn1 (centres unmarked) [Compound 2] | 0.077 | 0.0135 |  | 
16 | CCCCC(CC#N)n1cc(-c2cccc3nc(NC(=O)C4CC4)cn23)cn1 (centres unmarked) [Compound 7] | 0.00762 | 0.00172 |  | 
17 | O=C(Nc1cn2c(-c3ccc(ON4CC[S+]([O-])CC4)cc3)cccc2n1)C1CC1 [Compound 21] | 0.247 | 0.592 |  | 
18 | CCS(=O)(=O)C1CCN(Cc2ccc(-c3cccc4nc(NC(=O)C5CC5)cn34)cc2)CC1 [Compound 30] | 0.387 | 0.162 | 5.59 | 
19 | O=C(Nc1nc2cccc(-c3ccc(CN4CCS(=O)(=O)CC4)cc3)n2n1)C1(F)CC1 [Compound 24] | 3.64 | 1.58 | > 10 | 
20 | N#CCC1(n2cc(-c3cccc4nc(NC(=O)C5CC5)cn34)cn2)CCCCC1 [Compound 14] | 0.115 | 0.0067 |  | 
21 | N#CCC(C1CCCC1)n1cc(-c2cccc3nc(NC(=O)C4CC4)nn23)cn1 (centres unmarked) [Compound 11] | 0.0366 | 0.00628 |  | 
22 | N#CCC1(n2cc(-c3cccc4nc(NC(=O)C5CC5)cn34)cn2)CCC(C(F)(F)F)CC1 (centres unmarked) [Compound 13] | 0.0084 | 0.0008 | 0.0468 | 
23 | CCC(CC#N)n1cc(-c2cccc3nc(NC(=O)C4CC4)cn23)cn1 (centres unmarked) [Compound 4] | 0.0195 | 0.00468 |  | 
24 | COCC(CC#N)n1cc(-c2cccc3nc(NC(=O)C4CC4)cn23)cn1 (centres unmarked) [Compound 6] | 0.0489 | 0.00949 |  | 
25 | N#CCC(C1CCCC1)n1cc(-c2cccc3nc(NC(=O)C4CC4)cn23)cn1 (centres unmarked) [Compound 1] | 0.0576 | 0.00413 |  | 
26 | CC(C)CS(=O)(=O)C1CCN(Cc2ccc(-c3cccc4nc(NC(=O)C5CC5)cn34)cc2)CC1 [Compound 33] | 0.675 | 0.463 | 8.28 | 
